In US20250032623A1, “HETEROBIFUNCTIONAL COMPOUNDS AND THEIR USE IN TREATING DISEASE” (HALDA THERAPEUTICS OPCO, INC., priority 2021, published 2025):
pKd: −log10 of the molar value.

Tests used:
EGFR = biological target: T1, EGFR (Homo sapiens, UniProt P00533); assay: KdELECT binding assay, EGFR
T1 construct: purchased
Protocol: Exemplary compounds were tested for ability to bind to EGFR.
(§1) Compounds were tested using a KdELECT assay. Kinase-tagged T7 phage strains were prepared in an E. coli host derived from the BL21 strain. E. coli were grown to log-phase and infected with T7 phage and incubated with shaking at 32° C. until lysis. The lysates were centrifuged and filtered to remove cell debris. The remaining kinases were produced in HEK-293 cells and subsequently tagged with DNA for qPCR detection. Streptavidin-coated magnetic beads were treated with biotinylated small molecule ligands for 30 minutes at room temperature to generate affinity resins for kinase assays. The liganded beads were blocked with excess biotin and washed with blocking buffer (SeaBlock (Pierce), 1% BSA, 0.05% Tween 20, 1 mM DTT) to remove unbound ligand and to reduce non-specific binding. Binding reactions were assembled by combining kinases, liganded affinity beads, and test compounds in 1× binding buffer (20% SeaBlock, 0.17×PBS, 0.05% Tween 20, 6 mM DTT). Test compounds were prepared as 111× stocks in 100% DMSO. Kd values were determined using an 11-point 3-fold compound dilution series with three DMSO control points. All compounds for Kd measurements are distributed by acoustic transfer (non-contact dispensing) in 100% DMSO. The compounds were then diluted directly into the assays such that the final concentration of DMSO was 0.9%. All reactions performed in polypropylene 384-well plate. Each was a final volume of 0.02 mL. The assay plates were incubated at room temperature with shaking for 1 hour and the affinity beads were washed with wash buffer (1× PBS, 0.05% Tween 20). The beads were then re-suspended in elution buffer (1× PBS, 0.05% Tween 20, 0.5 μM nonbiotinylated affinity ligand) and incubated at room temperature with shaking for 30 minutes. The kinase concentration in the eluates was measured by qPCR.

[1] = biological target: T2, EGFR T790M, L858R (amino acids 669-1011 Accession Number NP_005219.2) (Homo sapiens, UniProt P00533, L858R/T790M); assay: KdELECT binding assay (Eurofins Discovery), EGFR T790M, L858R; conditions: read-out: EGFR DM Kd
T2 construct: purchased Eurofins Discovery; host or cells: mammalian cells (HEK-293)
T2 sequence (P00533 669-1011 T790M/L858R): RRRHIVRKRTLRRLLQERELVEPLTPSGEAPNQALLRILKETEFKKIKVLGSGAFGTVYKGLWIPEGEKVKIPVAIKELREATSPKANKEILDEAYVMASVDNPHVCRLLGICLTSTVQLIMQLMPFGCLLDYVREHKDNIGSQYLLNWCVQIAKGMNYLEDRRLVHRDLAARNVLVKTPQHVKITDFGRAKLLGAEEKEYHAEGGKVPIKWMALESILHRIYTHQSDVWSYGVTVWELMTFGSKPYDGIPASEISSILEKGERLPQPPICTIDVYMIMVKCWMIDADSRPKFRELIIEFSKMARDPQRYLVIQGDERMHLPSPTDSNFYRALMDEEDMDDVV
Protocol: (§2) Exemplary compounds were tested for ability to bind to EGFR WT (amino acids 669-1011, Accession Number NP_005219.2) or EGFR T790M, L858R (amino acids 669-1011 Accession Number NP_005219.2) expressed from bacteria or mammalian cells, respectively. Compounds were tested using the KdELECT assay at Eurofins Discovery.
as §1, with “Kinase-tagged” for “Compounds were tested using a KdELECT assay. Kinase-tagged”

HeLa cells = assay: Cellular growth inhibition assay (CellTiter-Glo), HeLa cells; format: cell-based; conditions: Homo sapiens, 72 h, three days compound treatment, CellTiter-Glo 2.0, read-out: CTG HELA GI50
Protocol: (§3) Exemplary compounds were tested for ability to inhibit the proliferation of HEK293 cells or HeLa cells.
(§4) HEK293 and HeLa cells were cultured in DMEM medium supplemented with 10% fetal bovine serum and 1% Penn/Strep. Cells were seeded in white 384-well plates at 500 cells/well in […] complete medium. Following seeding, plates were spun at 300×g for three minutes and cultured at 37° C. with 5% CO2 in a humidified tissue culture incubator.
(§5) After 24 hours, compounds were titrated in 100% DMSO and diluted in complete cell culture medium. […] of compound/media mixture was added to cells to bring total volume in well to […]. DMSO alone was used as a negative control. P lates were then spun at 300×g for three minutes and stored at 37° C. with 5% CO2 for three days.
(§6) On Day 0 and Day 3 of compound treatment, cell viability was quantified with CellTiter-Glo 2.0 reagent (Promega). After equilibrating microplates at room temperature for 30 minutes, 25 μL CellTiter-Glo 2.0 reagent was dispensed into each well to bring total volume to […]. Plates were mixed on shaker for 2 minutes at 500 rpm, followed by a 10-minute incubation at room temperature. Following a quick spin, luminescence readings were measured with an EnVision Plate Reader. Data was normalized to DMSO treated Day 0 and Day 3 readings. A four-parameter non-linear regression curve fit was applied to dose-response data in GraphPad Prism data analysis software to determine the half maximal growth inhibitory concentration (GI50) for each compound.

HEK293 cells = assay: Cellular growth inhibition assay (CellTiter-Glo), HEK293 cells; format: cell-based; conditions: Homo sapiens, 72 h, three days compound treatment, CellTiter-Glo 2.0, read-out: CTG HEK293 GI50
Protocol: as §3, §4, §5, §6

[2] = biological target: T3, EGFR WT (amino acids 669-1011, Accession Number NP_005219.2) (Homo sapiens, UniProt P00533); assay: KdELECT binding assay (Eurofins Discovery), EGFR WT
T3 construct: purchased Eurofins Discovery; host or cells: bacteria (E. coli, BL21-derived, T7 phage)
T3 sequence (P00533 669-1011): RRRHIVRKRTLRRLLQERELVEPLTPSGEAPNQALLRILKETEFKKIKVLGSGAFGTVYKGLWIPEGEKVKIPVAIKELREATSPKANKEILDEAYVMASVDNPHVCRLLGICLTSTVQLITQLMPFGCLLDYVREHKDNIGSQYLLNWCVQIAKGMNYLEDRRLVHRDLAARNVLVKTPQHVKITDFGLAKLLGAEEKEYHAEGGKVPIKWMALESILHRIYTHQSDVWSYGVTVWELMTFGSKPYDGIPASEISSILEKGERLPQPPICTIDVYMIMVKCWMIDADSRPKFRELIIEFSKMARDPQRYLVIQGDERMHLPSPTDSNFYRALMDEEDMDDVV
Protocol: as §2
as §1, with “Kinase-tagged” for “Compounds were tested using a KdELECT assay. Kinase-tagged”

T1 sequence (P00533 25-1210): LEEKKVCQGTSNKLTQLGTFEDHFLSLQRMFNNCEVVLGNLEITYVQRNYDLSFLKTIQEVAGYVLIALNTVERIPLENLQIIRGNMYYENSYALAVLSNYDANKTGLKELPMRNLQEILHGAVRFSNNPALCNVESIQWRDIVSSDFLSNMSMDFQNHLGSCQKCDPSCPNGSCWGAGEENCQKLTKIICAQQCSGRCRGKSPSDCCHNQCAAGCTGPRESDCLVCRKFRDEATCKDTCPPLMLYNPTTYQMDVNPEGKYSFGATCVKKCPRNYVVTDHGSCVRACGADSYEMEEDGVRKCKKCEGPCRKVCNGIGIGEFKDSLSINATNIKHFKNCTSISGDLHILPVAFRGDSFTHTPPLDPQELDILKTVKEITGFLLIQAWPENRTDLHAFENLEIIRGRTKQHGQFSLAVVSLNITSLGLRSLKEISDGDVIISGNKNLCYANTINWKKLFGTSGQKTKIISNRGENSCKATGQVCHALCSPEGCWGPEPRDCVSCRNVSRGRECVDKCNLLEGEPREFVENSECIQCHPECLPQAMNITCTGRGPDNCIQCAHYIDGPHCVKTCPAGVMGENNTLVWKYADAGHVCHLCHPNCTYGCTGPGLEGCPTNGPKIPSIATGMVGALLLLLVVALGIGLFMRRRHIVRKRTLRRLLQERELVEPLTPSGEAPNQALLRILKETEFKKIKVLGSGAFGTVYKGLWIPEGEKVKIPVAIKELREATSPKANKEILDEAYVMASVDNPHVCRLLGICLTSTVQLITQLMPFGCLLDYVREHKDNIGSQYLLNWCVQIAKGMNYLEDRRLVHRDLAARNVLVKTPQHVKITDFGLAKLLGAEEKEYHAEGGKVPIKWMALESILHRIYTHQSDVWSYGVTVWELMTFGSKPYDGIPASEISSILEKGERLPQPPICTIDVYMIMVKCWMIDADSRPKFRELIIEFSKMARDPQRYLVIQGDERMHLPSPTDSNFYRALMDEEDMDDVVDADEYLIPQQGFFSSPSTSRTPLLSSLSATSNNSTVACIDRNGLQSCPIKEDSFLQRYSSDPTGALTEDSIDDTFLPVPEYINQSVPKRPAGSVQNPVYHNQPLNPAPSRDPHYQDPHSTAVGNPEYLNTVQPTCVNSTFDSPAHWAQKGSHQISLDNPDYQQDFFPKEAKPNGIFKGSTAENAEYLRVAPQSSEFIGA

| Structure (SMILES) | pKd (EGFR) | pKd [1] | GI50 (HeLa cells) | pKd [2] | GI50 (HEK293 cells) |
| --- | --- | --- | --- | --- | --- |
| CCC1C(=O)N(C)c2cnc(Nc3ccc(C(=O)NCCOCCOCCN(C)CC=CC(=O)NC4CN(c5nc(Nc6cn(C)nc6OC)c6ncn(C)c6n5)CC4F)cc3OC)nc2N1C1CCCC1 [Compound I-120, 4-[[(7R)-8-cyclopentyl-7-ethyl-5-methyl-6-oxo-7H-pteridin-2-yl]amino]-N-[2-[2-[2-[[(E)-4-1[[(3R,4R)-4-fluoro-1-[6-1[(3-methoxy-1-methyl-pyrazol-4-yl)amino]-9-methyl-purin-2-yl]pyrrolidin-3-yl]amino]-4-oxo-but-2-enyl]-methylamino]ethoxy]ethoxy]ethyl]-3-methoxy-benzamide] | < 5.60 | 6.30 to 7.30 |  | < 5.60 | 500 to 1500 nM |
| CC[C@@H]1C(=O)N(C)c2cnc(Nc3ccc(C(=O)NCCOCCOCCOCCOCCOCCOCCN(C)C/C=C/C(=O)NC4CN(c5nc(Nc6cn(C)nc6OC)c6ncn(C)c6n5)C[C@H]4F)cc3OC)nc2N1C1CCCC1 (stereo partly drawn) [Compound I-121, 4-[[(7R)-8-cyclopentyl-7-ethyl-5-methyl-6-oxo-7H-pteridin-2-yl]amino]-N-[2-[2-[2-[2-[2-[2-[2-[[(E)-4-[1[(3R,4R)-4-fluoro-1-1[6-1[(3-methoxy-1-methyl-pyrazol-4-yl)amino]-9-methyl-purin-2-yl]pyrrolidin-3-yl]amino]-4-oxo-but-2-enyl]-methyl-amino]ethoxy]ethoxy]ethoxy]ethoxy]ethoxy]ethoxy]ethyl]-3-methoxy-benzamide] | 5.60 to 6.30 | 6.30 to 7.30 |  | 5.60 to 6.30 | 500 to 1500 nM |
| CC[C@@H]1C(=O)N(C)c2cnc(Nc3ccc(C(=O)NCCOCCOCCOCCOCCN(C)C/C=C/C(=O)Nc4cc(Nc5nccc(-c6cn(C)c7ccccc67)n5)c(OC)cc4N(C)CCN(C)C)cc3OC)nc2N1C1CCCC1 [Compound I-123, 4-[[(7R)-8-cyclopentyl-7-ethyl-5-methyl-6-oxo-7H-pteridin-2-yl]amino]-N-[2-[2-1[2-[2-[2-[[(E)-4-[2-1[2-(dimethylamino)ethyl-methyl-amino]-4-methoxy-5-[1[4-(1-methylindol-3-yl)pyrimidin-2-yl]amino]anilino]-4-oxo-but-2-enyl]-methyl-amino]ethoxy]ethoxy]ethoxy]ethoxy]ethyl]-3-methoxy-benzamide] | < 5.60 | > 7.30 | 500 to 1500 nM | < 5.60 | 500 to 1500 nM |
| C=CC(=O)N[C@@H]1CN(c2nc(Nc3cn(CCOCCOCCOCCOCCNC(=O)c4ccc(Nc5ncc6c(n5)N(C5CCCC5)[C@H](CC)C(=O)N6C)c(OC)c4)nc3OC)c3ncn(C)c3n2)C[C@H]1F [Compound I-125] | 6.30 to 7.30 | > 7.30 | > 5000 nM | 6.30 to 7.30 | 1500 to 5000 nM |
| COc1cc(N(C)CCN(C)C)c(NC(=O)/C=C/CN(C)CCCN2CCN(CCCON(C)C(=O)N3N=C(c4cc(F)ccc4F)S[C@@]3(CCCN)c3ccccc3)CC2)cc1Nc1nccc(-c2cn(C)c3ccccc23)n1 [Compound I-146, (2S)-2-(3-aminopropyl)-5-(2,5-difluorophenyl)-N-[3-[4-1[3-[[(E)-4-1[2-[2-(dimethylamino)ethyl-methyl-amino]-4-methoxy-5-1[[4-(1-methylindol-3-yl)pyrimidin-2-yl]amino]anilino]-4-oxo-but-2-enyl]-methyl-amino]propyl]piperazin-1-yl]propoxy]-N-methyl-2-phenyl-1,3,4-thiadiazole-3-carboxamide] | 5.60 to 6.30 | > 7.30 | 500 to 1500 nM | 5.60 to 6.30 |  |

The next lines start with results.

| pKd (EGFR) | pKd [1] | GI50 (HeLa cells) | pKd [2] | Structure (SMILES) | GI50 (HEK293 cells) |
| --- | --- | --- | --- | --- | --- |
| > 7.30 | > 7.30 | 500 to 1500 nM | 6.30 to 7.30 | C=CC(=O)Nc1cc(Nc2nccc(-c3cn(C)c4ccccc34)n2)c(OC)cc1N(C)CCN(C)CCOCCOCCOCCOCCON(C)C(=O)N1N=C(c2cc(F)ccc2F)SC1(CCCN)c1ccccc1 (centres unmarked) [Compound I-67] | 500 to 1500 nM |
| > 7.30 | > 7.30 | < 500 nM | 5.60 to 6.30 | C=CC(=O)Nc1cc(Nc2nccc(-c3cn(C)c4ccccc34)n2)c(OC)cc1N(C)CCN(C)CCOCCOCCOCCOCCOCCOCCOCCOCCON(C)C(=O)N1N=C(c2cc(F)ccc2F)SC1(CCCN)c1ccccc1 (centres unmarked) [Compound I-69] | 500 to 1500 nM |
| < 5.60 | 6.30 to 7.30 |  | < 5.60 | CC[C@@H]1C(=O)N(C)c2cnc(Nc3ccc(C(=O)NCCOCCOCCOCCOCCOCCOCCN(C)C/C=C/C(=O)Nc4cc(Nc5nccc(-c6cn(C)c7ccccc67)n5)c(OC)cc4N(C)CCN(C)C)cc3OC)nc2N1C1CCCC1 [Compound I-118, 4-[[(7R)-8-cyclopentyl-7-ethyl-5-methyl-6-oxo-7H-pteridin-2-yl]amino]-N-[2-[2-[2-[2-[2-[2-[2-[[(E)-4-[2-[2-(dimethylamino)ethyl-methyl-amino]-4-methoxy-5-[[4-(1-methylindol-3-yl)pyrimidin-2-yl]amino]anilino]-4-oxo-but-2-enyl]-methyl-amino]ethoxy]ethoxy]ethoxy]ethoxy]ethoxy]ethoxy]ethyl]-3-methoxy-benzamide] | 500 to 1500 nM |
| 6.30 to 7.30 | > 7.30 | 1500 to 5000 nM | 5.60 to 6.30 | C=CC(=O)Nc1cc(Nc2nccc(-c3cn(C)c4ccccc34)n2)c(OC)cc1N(C)CCN(C)CCCN1CCN(CCCNC(=O)c2ccc(Nc3ncc4c(n3)N(C3CCCC3)[C@H](CC)C(=O)N4C)c(OC)c2)CC1 [Compound I-122, 4-[(8-cyclopentyl-7-ethyl-5-methyl-6-oxo-7H-pteridin-2-yl)amino]-3-methoxy-N-[3-[4-[3-[2-[5-methoxy-N-methyl-4-[[4-(1-methylindol-3-yl)pyrimidin-2-yl]amino]-2-(prop-2-enoylamino)anilino]ethyl-methyl-amino]propyl]piperazin-1-yl]propyl]benzamide] | 1500 to 5000 nM |
